System: CXCL10 production
Test: CXCL10 production inhibition test
Format: cell-based
Conditions: Endothelial cell; test compound 0.1 μmol/L; human umbilical vein-derived endothelial cells; TNFα 10 ng/mL; supernatant 72 hours after stimulation; ELISA; read-out: Rate of inhibition of CXCL10 production
Protocol: (CXCL10 Production Inhibition Test)
0.5×10^4 or 1×10^4 human umbilical vein-derived endothelial cells were suspended in 100 μL of an EGM-2 BulletKit medium (without GA) or a Medium-200 medium supplemented with an EGM-2 SingleQuots kit (without GA), inoculated to a 96-well plate and cultured overnight. 100 μL of a solution of each test compound diluted with the same medium as that used in the inoculation was added to the cultured cells (final concentration of the test compound: 0.1 μmol/L). 1 hour thereafter, TNFα was added thereto at a final concentration of 10 ng/mL. 72 hours after the stimulation, the supernatant was recovered, and the amount of CXCL10 produced in the culture supernatant was determined using an ELISA kit (Peprotech, 900-109).
The rate of inhibition was calculated according to the following expression: Rate of inhibition (%)=100−(Amount of CXCL10 produced in the presence of the test compound/Amount of CXCL10 produced in the absence of the test compound)×100

| Compound | inhibition at 0.1 µM |
| --- | --- |
| CCn1c(=O)cc(C2CC2)c2cc(N(C)C(=O)c3ccccc3)ccc21 [Example 2, N-(4-cyclopropyl-1-ethyl-2-oxo-1,2-dihydroquinolin-6-yl)-N-methylbenzamide] | ≥ 50% |
| CCn1c(=O)cc(N2CCOCC2)c2cc(-n3c(-c4ccccc4)c[nH]c3=O)ccc21 [Example 3, 1-ethyl-4-(morpholin-4-yl)-6-(2-oxo-5-phenyl-2,3-dihydro-1H-imidazol-1-yl)quinolin-2(1H)-one] | ≥ 50% |
| CCN1CCC(c2cc(=O)n(CC)c3ccc(C(=O)N(C)c4ccccc4)cc23)CC1 [Example 8, 1-ethyl-4-(1-ethylpiperidin-4-yl)-N-methyl-2-oxo-N-phenyl-1,2-dihydroquinoline-6-carboxamide] | ≥ 50% |
| CCn1c(=O)cc(C2CCN(C)CC2)c2cc(C(=O)N3CCCc4ccccc43)ccc21 [Example 11, 6-(3,4-dihydroquinolin-1(2H)-ylcarbonyl)-1-ethyl-4-(1-methylpiperidin-4-yl)quinolin-2(1H)-one] | ≥ 50% |
| CCn1c(=O)cc(C2CCN(C)CC2)c2cc(C(=O)N(C)c3ccc(C)cc3)ccc21 [Example 14, 1-ethyl-N-methyl-N-(4-methylphenyl)-4-(1-methylpiperidin-4-yl)-2-oxo-1,2-dihydroquinoline-6-carboxamide] | ≥ 50% |
| CCn1c(=O)cc(C(C)C)c2cc(N(C)C(=O)c3ccc(Cl)cc3)ccc21 [Example 16, 4-chloro-N-(1-ethyl-2-oxo-4-(propan-2-yl)-1,2-dihydroquinolin-6-yl)-N-methylbenzamide] | ≥ 50% |
| CCn1c(=O)cc(C2CCN(C)CC2)c2cc(C(=O)N(C)c3ccc4c(c3)CCC4)ccc21 [Example 17, N-(2,3-dihydro-1H-inden-5-yl)-1-ethyl-N-methyl-4-(1-methylpiperidin-4-yl)-2-oxo-1,2-dihydroquinoline-6-carboxamide] | ≥ 50% |
| CCn1c(=O)cc(N2CCOCC2)c2cc(-n3c(-c4ccc(Cl)cc4)c[nH]c3=O)ccc21 [Example 245, 6-(5-(4-chlorophenyl)-2-oxo-2,3-dihydro-1H-imidazol-1-yl)-1-ethyl-4-(morpholin-4-yl)quinolin-2(1H)-one] | ≥ 50% |
| CCn1c(=O)cc(N2CCOCC2)c2cc(-n3c(-c4ccc(Cl)cc4)cn(C)c3=O)ccc21 [Example 246, 6-(5-(4-chlorophenyl)-3-methyl-2-oxo-2,3-dihydro-1H-imidazol-1-yl)-1-ethyl-4-(morpholin-4-yl)quinolin-2(1H)-one] | ≥ 50% |
| CCn1c(=O)cc(N2CCOCC2)c2cc(-n3c(-c4ccccc4)cn(C(C)C)c3=O)ccc21 [Example 247, 1-ethyl-4-(morpholin-4-yl)-6-(2-oxo-5-phenyl-3-(propan-2-yl)-2,3-dihydro-1H-imidazol-1-yl)quinolin-2(1H)-one] | ≥ 50% |
| CCn1c(=O)cc(C2CC2)c2cc(-n3c(=O)[nH]c(=O)n3-c3ccccc3)ccc21 [Example 248, 1-(4-cyclopropyl-1-ethyl-2-oxo-1,2-dihydroquinolin-6-yl)-2-phenyl-1,2,4-triazolidine-3,5-dione] | ≥ 50% |
| CCn1c(=O)cc(N2CCOCC2)c2cc(N(C)C(=O)c3ccc(Cl)cc3)ccc21 [Example 250, 4-chloro-N-(1-ethyl-4-(morpholin-4-yl)-2-oxo-1,2-dihydroquinolin-6-yl)-N-methylbenzamide] | ≥ 50% |
| CCn1c(=O)cc(C2CC2)c2cc(-c3nc(C)nn3-c3ccccc3)ccc21 [Example 252] | ≥ 50% |
| CCn1c(=O)cc(N2CCOCC2)c2cc(N3C(=O)CC[C@H]3c3ccccc3)ccc21 [Example 253, 1-ethyl-4-(morpholin-4-yl)-6-((5S)-2-oxo-5-phenylpyrrolidin-1-yl)quinolin-2(1H)-one] | ≥ 50% |
| CCn1c(=O)cc(C2CC2)c2cc(N3C(=O)CC[C@H]3c3ccccc3)ccc21 [Example 254, 4-cyclopropyl-1-ethyl-6-((5S)-2-oxo-5-phenylpyrrolidin-1-yl)quinolin-2(1H)-one] | ≥ 50% |
| CCn1c(=O)cc(N2CCOCC2)c2cc(-n3ccnc3-c3ccccc3)ccc21 [Example 255] | ≥ 50% |
| CCn1c(=O)cc(N2CCOCC2)c2cc(-n3cc(C)nc3-c3ccccc3)ccc21 [Example 256, 1-ethyl-6-(4-methyl-2-phenyl-1H-imidazol-1-yl)-4-(morpholin-4-yl)quinolin-2(1H)-one] | ≥ 50% |
| CCn1c(=O)cc(N2CCOCC2)c2cc(-c3nccn3-c3ccccc3)ccc21 [Example 257, 1-ethyl-4-(morpholin-4-yl)-6-(1-phenyl-1H-imidazol-2-yl)quinolin-2(1H)-one] | ≥ 50% |
| CCn1c(=O)cc(N2CCOCC2)c2cc(-c3ccccc3-c3ccccc3)ccc21 [Example 258, 6-(biphenyl-2-yl)-1-ethyl-4-(morpholin-4-yl)quinolin-2(1H)-one] | ≥ 50% |
| CCn1c(=O)cc(N2CCOCC2)c2cc(-n3c(-c4ccccc4)cn(CCN4CCCCC4)c3=O)ccc21 [Example 259, 1-ethyl-4-(morpholin-4-yl)-6-(2-oxo-5-phenyl-3-(2-(piperidin-1-yl)ethyl)-2,3-dihydro-1H-imidazol-1-yl)quinolin-2(1H)-one] | ≥ 50% |
| CCn1c(=O)cc(N2CCOCC2)c2cc(-n3c(-c4ccccc4)cn(CCN4CCOCC4)c3=O)ccc21 [Example 260, 1-ethyl-4-(morpholin-4-yl)-6-(3-(2-(morpholin-4-yl)ethyl)-2-oxo-5-phenyl-2,3-dihydro-1H-imidazol-1-yl)quinolin-2(1H)-one] | ≥ 50% |
| CCn1c(=O)cc(N2CCOCC2)c2cc(-n3c(-c4ccccc4)cn(CCN(C)C)c3=O)ccc21 [Example 261, 6-(3-(2-(dimethylamino)ethyl)-2-oxo-5-phenyl-2,3-dihydro-1H-imidazol-1-yl)-1-ethyl-4-(morpholin-4-yl)quinolin-2(1H)-one] | ≥ 50% |
| CCn1c(=O)cc(N2CCOCC2)c2cc(-n3c(-c4ccccc4)cn(CCO)c3=O)ccc21 [Example 262, 1-ethyl-6-(3-(2-hydroxyethyl)-2-oxo-5-phenyl-2,3-dihydro-1H-imidazol-1-yl)-4-(morpholin-4-yl) quinolin-2(1H)-one] | ≥ 50% |
| CCn1c(=O)cc(N2CCOCC2)c2cc(-n3c(-c4ccccc4)cn(CCOC)c3=O)ccc21 [Example 263, 1-ethyl-6-(3-(2-methoxyethyl)-2-oxo-5-phenyl-2,3-dihydro-1H-imidazol-1-yl)-4-(morpholin-4-yl) quinolin-2(1H)-one] | ≥ 50% |
| CCCCn1cc(-c2ccccc2)n(-c2ccc3c(c2)c(N2CCOCC2)cc(=O)n3CC)c1=O [Example 264, 6-(3-butyl-2-oxo-5-pheynyl-2,3-dihydro-1H-imidazazol-1-yl)-1-ethyl-4-(morpholin-4-yl)quinolin-2(1H)-one] | ≥ 50% |
| CCCn1cc(-c2ccccc2)n(-c2ccc3c(c2)c(N2CCOCC2)cc(=O)n3CC)c1=O [Example 265, 1-ethyl-4-(morpholin-4-yl)-6-(2-oxo-5-phenyl-3-propyl-2,3-dihydro-1H-imidazol-1-yl)quinolin-2(1H)-one] | ≥ 50% |
| CCn1cc(-c2ccccc2)n(-c2ccc3c(c2)c(N2CCOCC2)cc(=O)n3CC)c1=O [Example 266, 1-ethyl-6-(3-ethyl-2-oxo-5-phenyl-2,3-dihydro-1H-imidazol-1-yl)-4-(morpholin-4-yl)quinolin-2(1H)-one] | ≥ 50% |
